Measured values reported in ChEMBL document CHEMBL1201862, “PubChem BioAssay data set” (2004).
Where a name gives a salt, the structure may show the parent alone. Active and inactive are the calls of the source.

Legend:
[1] = target: T1, Zinc finger protein mex-5 (Caenorhabditis elegans, UniProt Q9XUB2); test: potency of MEX-5 RNA-binding blockers – biochemical, C. elegans, fluorescence polarization, dose response (AID 1960)
T1 sequence (Q9XUB2 whole entry): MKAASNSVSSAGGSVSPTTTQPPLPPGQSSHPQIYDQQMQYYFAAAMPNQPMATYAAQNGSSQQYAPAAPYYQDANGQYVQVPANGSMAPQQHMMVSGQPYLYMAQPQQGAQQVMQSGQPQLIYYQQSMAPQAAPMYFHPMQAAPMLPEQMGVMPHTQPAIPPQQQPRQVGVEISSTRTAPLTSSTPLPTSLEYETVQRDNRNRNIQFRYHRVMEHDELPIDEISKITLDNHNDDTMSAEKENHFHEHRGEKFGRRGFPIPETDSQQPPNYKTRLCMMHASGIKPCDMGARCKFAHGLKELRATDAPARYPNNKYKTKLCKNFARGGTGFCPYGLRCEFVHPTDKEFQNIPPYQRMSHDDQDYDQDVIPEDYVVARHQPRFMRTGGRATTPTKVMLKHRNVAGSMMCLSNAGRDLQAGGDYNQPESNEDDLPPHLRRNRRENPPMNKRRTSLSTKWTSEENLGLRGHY

[2] = target: T2, RNA-binding protein pos-1 (Caenorhabditis elegans, UniProt G5EF15); test: disruptors of C. elegans POS-1 RNA interaction – biochemical, fluorescence polarization, dose response (AID 1964);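 note: purified POS-1 fused to maltose binding protein made in E. coli; potency of compounds blocking POS-1 binding to fluorescent RNA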
T2 sequence (G5EF15 whole entry): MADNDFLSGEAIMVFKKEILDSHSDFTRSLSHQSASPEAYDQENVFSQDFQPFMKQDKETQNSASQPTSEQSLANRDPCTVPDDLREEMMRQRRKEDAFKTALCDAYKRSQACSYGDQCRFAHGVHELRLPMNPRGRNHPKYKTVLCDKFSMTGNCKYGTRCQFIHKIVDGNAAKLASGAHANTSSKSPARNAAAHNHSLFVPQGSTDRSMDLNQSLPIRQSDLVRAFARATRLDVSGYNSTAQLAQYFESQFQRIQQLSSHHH

[3] = target: T3, Endoribonuclease toxin MazF (Escherichia coli K-12, UniProt P0AE70); test: substrate-only fluorescence increase artefacts – biochemical, single-stranded RNase substrate, counter-screen for MazEF activator project, dose response (AID 588502); format: functional
T3 sequence (P0AE70 whole entry): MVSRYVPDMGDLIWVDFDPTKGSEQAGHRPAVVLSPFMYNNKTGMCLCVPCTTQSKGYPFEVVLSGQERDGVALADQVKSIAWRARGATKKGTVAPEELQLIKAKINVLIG

[4] = target: T3, Endoribonuclease toxin MazF; test: activation of MazEF endoribonuclease cleavage – biochemical, fluorescence, single-stranded RNA substrate, uHTS hits, dose response (AID 588481); format: functional
cells = format: functional, cell-based
[5] = target: T4, Nuclear receptor subfamily 0 group B member 1 (Homo sapiens, UniProt P51843); format: functional, cell-based;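 note: HEK293T cells transfected with SF-1 and DAX-1 plus StAR promoter luciferase reporter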
T4 sequence (P51843 whole entry): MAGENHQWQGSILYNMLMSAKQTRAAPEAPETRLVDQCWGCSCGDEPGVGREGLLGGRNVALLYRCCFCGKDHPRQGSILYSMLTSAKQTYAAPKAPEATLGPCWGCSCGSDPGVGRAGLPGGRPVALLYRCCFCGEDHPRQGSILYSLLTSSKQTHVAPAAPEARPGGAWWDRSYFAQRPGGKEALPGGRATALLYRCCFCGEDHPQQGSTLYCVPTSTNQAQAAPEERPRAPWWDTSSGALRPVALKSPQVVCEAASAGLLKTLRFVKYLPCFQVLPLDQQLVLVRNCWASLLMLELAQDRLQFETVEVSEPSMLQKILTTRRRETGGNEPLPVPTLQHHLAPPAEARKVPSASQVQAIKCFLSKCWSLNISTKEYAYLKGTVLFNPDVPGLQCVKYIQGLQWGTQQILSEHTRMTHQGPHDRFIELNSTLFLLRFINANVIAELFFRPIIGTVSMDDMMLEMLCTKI

HEK293 = test: EBV LMP1 TES2 canonical NF-kB signalling blockers – cell-based, HEK293, luciferase, cherry-pick, dose response (AID 588343); format: functional; settings: Homo sapiens
[6] = target: 72 kDa type IV collagenase (Homo sapiens, UniProt P08253); test: Dose Response validation of uHTS RPN11 inhibitor hits using a MMP-2 Fluorescence assay.; format: functional
Sequence of 72 kDa type IV collagenase (P08253 whole entry): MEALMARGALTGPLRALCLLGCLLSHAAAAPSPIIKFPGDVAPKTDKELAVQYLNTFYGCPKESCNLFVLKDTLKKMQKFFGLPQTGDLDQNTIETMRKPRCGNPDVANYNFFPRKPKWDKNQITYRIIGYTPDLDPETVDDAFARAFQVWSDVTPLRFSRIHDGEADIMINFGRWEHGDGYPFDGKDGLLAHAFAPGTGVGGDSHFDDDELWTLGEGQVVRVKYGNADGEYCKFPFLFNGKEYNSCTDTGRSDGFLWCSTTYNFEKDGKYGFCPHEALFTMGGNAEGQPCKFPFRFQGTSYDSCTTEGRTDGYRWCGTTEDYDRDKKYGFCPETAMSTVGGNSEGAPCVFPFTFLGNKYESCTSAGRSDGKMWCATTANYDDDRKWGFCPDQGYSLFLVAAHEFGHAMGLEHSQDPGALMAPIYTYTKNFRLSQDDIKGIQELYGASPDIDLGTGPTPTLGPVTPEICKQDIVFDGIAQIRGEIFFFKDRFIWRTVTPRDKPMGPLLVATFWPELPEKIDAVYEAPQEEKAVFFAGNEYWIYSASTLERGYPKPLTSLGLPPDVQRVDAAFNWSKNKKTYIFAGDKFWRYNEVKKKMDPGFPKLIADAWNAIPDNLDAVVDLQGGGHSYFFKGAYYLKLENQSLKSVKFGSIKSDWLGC

[7] = target: 26S proteasome non-ATPase regulatory subunit 14 (Homo sapiens, UniProt O00487); test: inhibition of proteasome subunit RPN11 – biochemical, fluorescence polarization, uHTS hits, confirmation (AID 602368); format: functional
Sequence of 26S proteasome non-ATPase regulatory subunit 14 (O00487 whole entry): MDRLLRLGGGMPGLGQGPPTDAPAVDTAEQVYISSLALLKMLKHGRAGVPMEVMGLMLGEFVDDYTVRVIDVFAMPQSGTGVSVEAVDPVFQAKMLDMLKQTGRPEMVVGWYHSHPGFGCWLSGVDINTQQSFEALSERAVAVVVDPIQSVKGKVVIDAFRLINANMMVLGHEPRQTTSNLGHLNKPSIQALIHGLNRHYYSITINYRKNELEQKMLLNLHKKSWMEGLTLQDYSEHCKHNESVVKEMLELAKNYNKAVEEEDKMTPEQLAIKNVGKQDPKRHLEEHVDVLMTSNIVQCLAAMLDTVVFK

Prothrombin = Prothrombin (Bos taurus, UniProt P00735); test: thrombin protease inhibitors – biochemical, fluorescence polarization, uHTS hits, dose response (AID 602369); format: functional
[8] = viability of HCT116 lacking mutant beta-catenin – cell-based, human colon tumor, dose response (AID 1045); format: functional;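 note: HCT116 colon tumor cells with beta catenin knocked out; cells exposed to compound for 60 hours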
[9] = viability of PTEN-deleted HCT116 cells – cell-based, HCT116 PTEN knockout, dose response (AID 1047); format: functional;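 note: HCT116 colon tumor cells with PTEN knocked out; cells exposed to compound for 60 hours before readout; potency for loss of cell viability measured by luminescence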
[10] = Luminescence Cell-Based Dose Confirmation HTS to Identify Inhibitors of Platelet Dense Granule Release. [Related pubchem assays: 1663 (Primary HTS), 1678 (Summary of Project)]; format: functional
Melanocortin receptor 4 = Melanocortin receptor 4 (Homo sapiens, UniProt P32245); format: functional, cell-based;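 note: Cell-based assay with luminescence read-out, confirmatory dose-response testing for agonist activity of biased ligands at MC4R; human U2OS cells with tagged receptor and beta-arrestin; potency of agonists that increase receptor coupling to beta-arrestin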
Sequence of Melanocortin receptor 4 (P32245 whole entry): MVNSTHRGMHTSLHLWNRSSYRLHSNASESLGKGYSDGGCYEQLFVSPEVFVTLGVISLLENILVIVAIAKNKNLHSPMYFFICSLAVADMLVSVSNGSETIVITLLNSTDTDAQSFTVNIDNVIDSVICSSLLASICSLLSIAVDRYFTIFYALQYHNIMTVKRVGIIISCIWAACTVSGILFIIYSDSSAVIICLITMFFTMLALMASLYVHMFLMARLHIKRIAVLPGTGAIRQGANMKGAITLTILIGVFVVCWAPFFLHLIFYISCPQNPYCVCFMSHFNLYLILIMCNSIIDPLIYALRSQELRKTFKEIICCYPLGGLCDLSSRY

[11] = target: Luciferin 4-monooxygenase (Photinus pyralis, UniProt P08659); test: inhibition of purified Photinus pyralis luciferase – biochemical, luminescence, dose response (AID 1891)
Sequence of Luciferin 4-monooxygenase (P08659 whole entry): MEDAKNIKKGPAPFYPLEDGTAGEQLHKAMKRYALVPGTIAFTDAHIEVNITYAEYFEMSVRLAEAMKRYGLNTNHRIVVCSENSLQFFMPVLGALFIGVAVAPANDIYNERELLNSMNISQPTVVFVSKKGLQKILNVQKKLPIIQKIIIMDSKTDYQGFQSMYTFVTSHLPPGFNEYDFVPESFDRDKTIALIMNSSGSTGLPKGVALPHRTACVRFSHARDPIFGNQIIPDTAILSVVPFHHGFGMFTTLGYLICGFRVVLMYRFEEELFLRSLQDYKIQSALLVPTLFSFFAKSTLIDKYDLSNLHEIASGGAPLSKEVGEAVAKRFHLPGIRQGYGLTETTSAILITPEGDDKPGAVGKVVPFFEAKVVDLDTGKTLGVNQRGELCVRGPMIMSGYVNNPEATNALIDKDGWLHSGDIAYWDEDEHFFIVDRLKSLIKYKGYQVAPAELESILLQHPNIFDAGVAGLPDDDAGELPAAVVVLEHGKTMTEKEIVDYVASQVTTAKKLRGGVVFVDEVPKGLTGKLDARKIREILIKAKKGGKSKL

INS1 = test: INS-1E survival protection against cytokine death – cell-based, luminescence, retest, dose response (AID 449756); format: functional; settings: Rattus norvegicus;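 note: cell death triggered by IL-1 beta plus TNF-alpha plus IFN-gamma mixture; protective hits raise ATP signal compared with cytokine alone wells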
Caspase-3 = target: T5, Caspase-3 (Homo sapiens, UniProt P42574); test: SAR Analysis of small molecule inhibitors of Sentrin-specific proteases (SENPs) using a Caspase-3 Selectivity assay. [Related pubchem assays (depositor defined):AID2540, AID2599, AID434973, AID489001]; format: functional
T5 sequence (P42574 whole entry): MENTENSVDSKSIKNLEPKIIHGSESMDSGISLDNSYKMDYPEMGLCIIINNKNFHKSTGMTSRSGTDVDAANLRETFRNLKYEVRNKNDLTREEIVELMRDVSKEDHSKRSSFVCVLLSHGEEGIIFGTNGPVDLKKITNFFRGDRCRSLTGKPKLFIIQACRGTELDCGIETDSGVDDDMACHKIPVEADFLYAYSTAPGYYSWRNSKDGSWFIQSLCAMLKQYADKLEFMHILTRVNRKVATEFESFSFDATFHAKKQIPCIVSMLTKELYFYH

[12] = target: T6, Sentrin-specific protease 7 (Homo sapiens, UniProt Q9BQF6); test: inhibition of human SENP7 cleavage activity – biochemical, luminescence, SAR follow-up (AID 504497); format: functional
T6 sequence (Q9BQF6 whole entry): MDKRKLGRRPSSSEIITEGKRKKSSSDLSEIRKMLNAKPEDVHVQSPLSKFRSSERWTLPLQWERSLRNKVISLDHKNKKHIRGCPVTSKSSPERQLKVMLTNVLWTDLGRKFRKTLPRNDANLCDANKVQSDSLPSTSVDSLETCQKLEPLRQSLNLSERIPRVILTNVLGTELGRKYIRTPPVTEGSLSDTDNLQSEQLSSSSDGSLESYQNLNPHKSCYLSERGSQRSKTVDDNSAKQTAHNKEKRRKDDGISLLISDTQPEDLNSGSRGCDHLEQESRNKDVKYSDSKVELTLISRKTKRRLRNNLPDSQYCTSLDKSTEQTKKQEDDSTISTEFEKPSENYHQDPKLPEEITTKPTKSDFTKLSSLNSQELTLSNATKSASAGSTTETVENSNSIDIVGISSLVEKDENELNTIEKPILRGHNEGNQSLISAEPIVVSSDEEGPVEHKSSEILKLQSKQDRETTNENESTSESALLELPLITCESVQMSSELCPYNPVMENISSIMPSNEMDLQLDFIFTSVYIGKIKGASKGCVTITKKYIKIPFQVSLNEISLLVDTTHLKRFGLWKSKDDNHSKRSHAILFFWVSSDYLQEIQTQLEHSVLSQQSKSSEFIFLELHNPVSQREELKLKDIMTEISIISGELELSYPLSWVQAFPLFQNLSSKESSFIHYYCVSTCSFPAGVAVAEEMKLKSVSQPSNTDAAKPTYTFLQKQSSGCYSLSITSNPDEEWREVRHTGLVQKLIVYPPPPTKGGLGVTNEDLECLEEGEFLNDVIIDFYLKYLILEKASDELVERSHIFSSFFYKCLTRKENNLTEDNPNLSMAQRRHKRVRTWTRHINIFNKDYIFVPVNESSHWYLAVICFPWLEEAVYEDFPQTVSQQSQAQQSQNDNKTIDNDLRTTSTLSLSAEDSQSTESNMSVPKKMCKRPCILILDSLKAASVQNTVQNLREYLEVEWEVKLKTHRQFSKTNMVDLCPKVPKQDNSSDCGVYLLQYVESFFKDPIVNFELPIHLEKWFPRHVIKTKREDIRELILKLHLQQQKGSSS

[13] = target: T7, Sentrin-specific protease 6 (Homo sapiens, UniProt Q9GZR1); test: SAR Analysis of small molecule inhibitors of Sentrin-specific protease 6 (SENP6) using a Luminescent assay. [Related pubchem assays (depositor defined):AID2582, AID2599]; format: functional
T7 sequence (Q9GZR1 whole entry): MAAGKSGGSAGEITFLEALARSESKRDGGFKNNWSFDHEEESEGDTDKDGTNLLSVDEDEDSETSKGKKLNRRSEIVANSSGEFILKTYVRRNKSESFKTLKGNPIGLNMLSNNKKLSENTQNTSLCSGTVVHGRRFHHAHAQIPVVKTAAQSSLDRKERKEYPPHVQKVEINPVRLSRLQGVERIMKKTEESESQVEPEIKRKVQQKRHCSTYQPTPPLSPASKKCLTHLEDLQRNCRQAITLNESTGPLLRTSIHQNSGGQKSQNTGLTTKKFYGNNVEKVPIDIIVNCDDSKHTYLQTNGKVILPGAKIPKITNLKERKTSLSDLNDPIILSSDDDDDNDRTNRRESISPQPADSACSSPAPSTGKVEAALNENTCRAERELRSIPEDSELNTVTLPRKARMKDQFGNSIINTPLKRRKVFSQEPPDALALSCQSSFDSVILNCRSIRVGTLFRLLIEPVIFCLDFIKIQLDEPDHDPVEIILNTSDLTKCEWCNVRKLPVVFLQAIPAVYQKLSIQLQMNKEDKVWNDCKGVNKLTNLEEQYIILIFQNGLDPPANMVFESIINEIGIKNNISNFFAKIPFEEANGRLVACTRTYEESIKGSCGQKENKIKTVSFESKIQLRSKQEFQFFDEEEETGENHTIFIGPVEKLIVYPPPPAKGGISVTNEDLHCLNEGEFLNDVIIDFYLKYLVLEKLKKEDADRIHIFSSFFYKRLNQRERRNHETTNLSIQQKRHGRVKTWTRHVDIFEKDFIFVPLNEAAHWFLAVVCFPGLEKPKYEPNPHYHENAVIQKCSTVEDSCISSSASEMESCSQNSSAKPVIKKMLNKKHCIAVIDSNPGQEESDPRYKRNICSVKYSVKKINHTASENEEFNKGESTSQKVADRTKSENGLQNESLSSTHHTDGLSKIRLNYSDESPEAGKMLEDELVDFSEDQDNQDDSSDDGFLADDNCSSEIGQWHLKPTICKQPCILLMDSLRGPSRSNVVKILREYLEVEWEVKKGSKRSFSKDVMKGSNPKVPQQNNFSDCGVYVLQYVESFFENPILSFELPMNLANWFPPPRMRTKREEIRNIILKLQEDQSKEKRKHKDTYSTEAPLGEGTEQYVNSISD

[14] = target: T8, Sentrin-specific protease 8 (Homo sapiens, UniProt Q96LD8); test: inhibition of human SENP8 cleavage activity – biochemical, luminescence, SAR follow-up (AID 504501); format: functional
T8 sequence (Q96LD8 whole entry): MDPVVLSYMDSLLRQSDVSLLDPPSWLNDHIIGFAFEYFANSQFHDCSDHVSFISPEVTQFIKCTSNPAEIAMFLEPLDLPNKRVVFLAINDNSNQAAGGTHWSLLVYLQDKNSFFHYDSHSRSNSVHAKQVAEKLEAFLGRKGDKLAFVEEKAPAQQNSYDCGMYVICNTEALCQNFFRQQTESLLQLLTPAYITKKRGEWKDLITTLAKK

Vero = test: viability of Vero cells under compound – cytotoxicity control for flavivirus capping enzyme inhibitors (AID 588742); format: functional; settings: Chlorocebus sabaeus

SMILES: COc1ccc2c(c1)c1nc3ccccc3nc1n2CCCN1C(=O)c2ccccc2C1=O
- EC50 [1]: 73.9 µM (inconclusive)
- EC50 [2]: 32.7 µM (active)
- EC50 [3]: > 99 µM (inactive)
- EC50 [4]: > 99 µM (inactive)

SMILES: Cc1ccsc1/C=C/c1ccc2ccccc2n1
- IC50 (cells): > 67.5 µM (inactive)
- IC50 [5]: > 0.278 µM (active)
- AC50 (HEK293): 15.8 µM (active)
- IC50 [6]: > 100 µM (inactive)
- IC50 [7]: 23.4 µM (active)
- IC50 (Prothrombin): 29.3 µM (active)

SMILES: CCC(C)c1ccc(NC(S)=NC2CCN(Cc3ccccc3)CC2)cc1 (stereo not given)
- EC50 [8]: 14.2 µM (active)
- EC50 [9]: 13.5 µM (active)
- EC50 [10]: > 112 µM (not active)
- EC50 (Melanocortin receptor 4): > 9.91 µM (active)
- EC50 [11]: > 112 µM (not active)
- AC50 (INS1): 6.84 µM (active)

SMILES: CCc1cccc2c(C(=O)CN3C(=O)c4ccccc4C3=O)c[nH]c12
- IC50 (Caspase-3): > 99 µM (inactive)
- IC50 [12]: > 99 µM (inactive)
- IC50 [13]: > 99 µM (inactive)
- IC50 [14]: > 99 µM (inactive)

SMILES: O=[N+]([O-])c1ccc(-c2nc(/C=C/c3ccc(F)cc3)no2)cc1
- IC50 (Caspase-3): > 99 µM (inactive)
- IC50 [12]: > 99 µM (inactive)
- IC50 [13]: > 99 µM (inactive)
- IC50 [14]: > 99 µM (inactive)

SMILES: CN1CCN(C(c2ccccc2)c2ccc(Cl)cc2)CC1 (stereo not given) [CHLORCYCLIZINE HYDROCHLORIDE]
- CC50 (Vero): > 40 µM (active)
